From ChEMBL document CHEMBL1275266, “Synthesis, cytotoxic activities and DNA binding properties of β-carboline derivatives” (Eur J Med Chem, 2010)
Calls of active or inactive are those of the source. The rule behind the calls is not given here.

Experiments:
[1] = system: Calf thymus DNA; assay: Binding affinity to calf thymus DNA assessed as change in melting temperature at 20 uM by thermal denaturation assay; assay type: nucleic-acid assay; conditions: Bos taurus
[2] = system: 769-P; assay: Cytotoxicity against human 769-P cells by MTT assay; assay type: functional, cell-based
[3] = system: KB; assay: Cytotoxicity against human KB cells by MTT assay; assay type: functional, cell-based
[4] = system: BGC-823; assay: Cytotoxicity against human BGC823 cells by MTT assay; assay type: functional, cell-based
[5] = system: 786-0; assay: Cytotoxicity against human 786-0 cells by MTT assay; assay type: functional, cell-based
[6] = system: HepG2; assay: Cytotoxicity against human HepG2 cells by MTT assay; assay type: functional, cell-based
[7] = system: A-375; assay: Cytotoxicity against human A375 cells by MTT assay; assay type: functional, cell-based
[8] = system: HT-29; assay: Cytotoxicity against human HT-29 cells by MTT assay; assay type: functional, cell-based
[9] = system: OS-RC-2; assay: Cytotoxicity against human OS-RC2 cells by MTT assay; assay type: functional, cell-based
[10] = system: CWR22R; assay: Cytotoxicity against human 22Rv1 cells by MTT assay; assay type: functional, cell-based
[11] = system: MCF7; assay: Cytotoxicity against human MCF7 cells by MTT assay; assay type: functional, cell-based
[12] = system: Calf thymus DNA; assay: Binding affinity to calf thymus DNA at 20 uM by UV spectroscopy; assay type: nucleic-acid assay; conditions: Bos taurus
[13] = system: Calf thymus DNA; assay: Binding affinity to calf thymus DNA at 10 uM by fluorescence spectroscopy; assay type: nucleic-acid assay; conditions: Bos taurus

SMILES | ΔTm [1] | IC50 [2] | IC50 [3] | IC50 [4] | IC50 [5] | IC50 [6] | IC50 [7] | IC50 [8] | IC50 [9] | IC50 [10] | IC50 [11] | Activity [12] | Activity [13]
COc1cccc2c1C(=O)c1c(O)c3c(c(O)c1C2=O)C[C@@](O)(C(=O)CO)C[C@@H]3O[C@H]1C[C@H](N)[C@H](O)[C@H](C)O1 | 32 °C |  |  |  |  |  |  |  |  |  |  |  | 
COc1cc(-c2nc(CNCCCN(C)C)cc3c4ccccc4n(C)c23)cc(OC)c1OC |  | > 50 µM | > 50 µM | > 50 µM | 30.2 µM | 15.4 µM | > 50 µM | > 50 µM | > 50 µM | > 50 µM | 17.1 µM |  | 
CCN(CC)CCCCNCc1cc2c3ccccc3n(C)c2c(-c2cc(OC)c(OC)c(OC)c2)n1 |  | 19.1 µM | 42.8 µM | 46.3 µM | 20.7 µM | 7.1 µM | > 50 µM | > 50 µM | > 50 µM | > 50 µM | 36.5 µM |  | 
CCCCn1c2ccccc2c2cc(CNCCCCN(CC)CC)nc(-c3cc(OC)c(OC)c(OC)c3)c21 |  | 11.6 µM | 7.6 µM | 19.2 µM | 11 µM | 2.5 µM | 11 µM | 19.8 µM | 28.7 µM | 8.5 µM | 5.3 µM |  | 
CCN(CC)CCCCNCc1cc2c3ccccc3n(CCCc3ccccc3)c2c(-c2cc(OC)c(OC)c(OC)c2)n1 |  | 3.9 µM | 6.9 µM | 6.1 µM | 5.5 µM | 2.1 µM | 3.7 µM | 7.5 µM | 8.7 µM | 6.3 µM | 5.2 µM |  | 
CCN(CC)CCCNCc1cc2c3ccccc3n(CCCc3ccccc3)c2c(-c2cc(OC)c(OC)c(OC)c2)n1 | 14.6 °C | 2.7 µM | 6.5 µM | 5.9 µM | 4.7 µM | 1.7 µM | 2.6 µM | 5.9 µM | 8.3 µM | 7 µM | 4.9 µM | Active | Active
COc1cc(-c2nc(CNCCCN(C)C)cc3c2[nH]c2ccccc23)cc(OC)c1OC |  | > 50 µM | > 50 µM | > 50 µM | > 50 µM | 42.7 µM | > 50 µM | > 50 µM | > 50 µM | > 50 µM | > 50 µM |  | 
CCN(CC)CCNCc1cc2c3ccccc3n(C)c2c(-c2cc(OC)c(OC)c(OC)c2)n1 |  | > 50 µM | > 50 µM | > 50 µM | 33.7 µM | 14.8 µM | > 50 µM | > 50 µM | > 50 µM | > 50 µM | > 50 µM |  | 
CCCCn1c2ccccc2c2cc(CNCCCN(CC)CC)nc(-c3cc(OC)c(OC)c(OC)c3)c21 | 14.8 °C | 7.5 µM | 37.3 µM | 6.1 µM | 7.7 µM | 8.5 µM | 11.3 µM | 14 µM | 25.7 µM | 4.2 µM | 6.8 µM | Active | Active
COc1cc(-c2nc(CNCCCN(C)C)cc3c4ccccc4n(CCCc4ccccc4)c23)cc(OC)c1OC |  | 10.4 µM | 4.4 µM | 8.5 µM | 6 µM | 3.9 µM | 3.7 µM | 7.9 µM | 9.4 µM | 10 µM | 6.7 µM |  | 
CC(=O)O[C@H]1C(=O)[C@@]2(C)[C@H]([C@H](OC(=O)c3ccccc3)[C@]3(O)C[C@H](OC(=O)[C@H](O)[C@@H](NC(=O)c4ccccc4)c4ccccc4)C(C)=C1C3(C)C)[C@]1(OC(C)=O)CO[C@@H]1C[C@@H]2O [PACLITAXEL] |  |  | 0.08 µM | 1.5 µM | < 0.08 µM | < 0.08 µM |  |  | < 0.08 µM |  |  |  | 
CCN(CC)CCCNCc1cc2c([nH]c3ccccc32)c(-c2cc(OC)c(OC)c(OC)c2)n1 | 24.8 °C | > 50 µM | > 50 µM | > 50 µM | > 50 µM | 39.6 µM | > 50 µM | > 50 µM | 46.8 µM | > 50 µM | > 50 µM |  | 
CCN(CC)CCNCc1cc2c3ccccc3n(CCCc3ccccc3)c2c(-c2cc(OC)c(OC)c(OC)c2)n1 |  | 3 µM | 2.5 µM | 2.7 µM | 3.4 µM | 3.8 µM | 12 µM | 10.9 µM | 3 µM | 18.9 µM | 8.1 µM |  | 
CCCCn1c2ccccc2c2cc(CNCCCN(C)C)nc(-c3cc(OC)c(OC)c(OC)c3)c21 |  | 7.3 µM | 33.5 µM | 6.8 µM | 6 µM | 8.2 µM | 11 µM | 11.3 µM | 25.6 µM | 10.8 µM | 9.3 µM |  | 
CCCCn1c2ccccc2c2cc(CNCCN(CC)CC)nc(-c3cc(OC)c(OC)c(OC)c3)c21 |  | 14.5 µM | 44.9 µM | 13.9 µM | 13.9 µM | 18.6 µM | 14.5 µM | > 50 µM | 45.4 µM | 8.9 µM | > 50 µM |  | 
CCN(CC)CCCNCc1cc2c3ccccc3n(C)c2c(-c2cc(OC)c(OC)c(OC)c2)n1 | 17.3 °C | 34.6 µM | 29 µM | 48.5 µM | 12.1 µM | 8.2 µM | 48.4 µM | 43.1 µM | > 50 µM | > 50 µM | 28.3 µM | Active | Active
